Four compounds from patent US10106540B2, “HDAC6 inhibitors and their uses” (Universität Regensburg, priority 2014, dated 2018) can be followed below.

One test relates to HCT-116 cells. As to the kind of experiment: Western blot analysis in HCT-116 colon cancer cells. The following applies: HCT-116 cells, 24 h. It counts as cell-based, human. The procedure:
FIG. 5. Various cancer cells were treated for 24 h as shown and tested by Western blot analysis. […] Human colon cancer cell lines RKO (ATCC Accession No: CRL-2577) and HCT-116 (DSMZ Accession No: ACC-581). Western Blot Analysis a […] Protein lysate ([…]) was boiled in Laemmli buffer and separated on SDS-polyacrylamide gel electrophoresis for western blotting with specific antibodies. All lysates were assessed by Bradford assay for protein concentrations.
(A western blot detects proteins with antibodies after separation by electrophoresis.)

For a further test, the system named is HEL leukemic cells. As to the kind of experiment: Western blot analysis in HEL leukemic cells (JAK2 V617F). It is filed as cell-based, human. The following applies: for concentration with about the same potency in hyperacetylation of tubulin-α: 24 h, Western blot. The procedure: Human leukemia cell line HEL with JAK2 V617F mutation (DSMZ Accession No: ACC-11).
(§1) The assay is carried out as described in Buchwald et al. 2010 and Buchwald et al. 2013. Briefly, cells were collected and lysed in NET-N buffer (150 mM NaCl, 1 mM EDTA, 50 mM Tris-HCl (pH 7.8), 0.5% Nonidet P-40 (NP-40), 1 mM phenylmethylsulfonyl fluoride, 0.5 mg/ml leupeptin and 0.5 mg/ml pepstatin) followed by mild sonification on ice. Protein lysate ([…]) was boiled in Laemmli buffer and separated on SDS-polyacrylamide gel electrophoresis for western blotting with specific antibodies. All lysates were assessed by Bradford assay for protein concentrations.

The next test has as its system MAXF 401. Kind of test: In vitro activity against solid tumor cell lines (FACS analysis method a). It counts as cell-based. The settings on record: Homo sapiens, MAXF401, Breast. The procedure: (§2) Human breast cancer cell lines MAXF 401 and MAXF MCF-7 (Oncotest GmbH, Freiburg, Germany)
(§3) The assay is carried out as described in Pietschmann et al., 2012 and Brandl et al. 2012. Briefly, 10^5 cells were fixed in 1 ml 70% EtOH with 0.05% Tween-20 overnight at 4° C. The following day, cells were washed with 3 ml 38 mM sodium citrate, pH 7.4, and incubated for 20 min at 37° C. in 0.5 ml 38 mM sodium citrate, pH 7.4, supplemented with 50 μg/ml propidium iodide and 10 μg/ml RNase-A. DNA contents of the cells were measured by fluorescence-activated cell sorter (FACS). This method allows detection of the apoptotic subG1-fraction, which has a DNA content below 2n due to apoptotic cleavage of DNA. Equally, the cell cycle profile can be assessed with this method.
(§4) The novel HDAC6 inhibitors were tested in a panel of tumor cell lines for cytostatic/toxic activities (see Table 2).
In general terms: In flow cytometry, cells or beads pass a laser one at a time.

For a further test, the system named is MAXF MCF-7. The test is described as above. It is filed as cell-based. The following applies: Homo sapiens, MCF7, Breast. On the procedure: as §2, §3, §4
Test [1] relates to BV-173 cells. Kind of test: Flow cytometric analysis of BV-173 cells, combination with imatinib. The settings on record: BV-173, 1 μM MARB1 or 2 μM MARB2 combined with 0.2 or 0.5 μM imatinib, 48 h. It counts as cell-based, human. The procedure: (§5) Flow cytometric analysis of the induction of (A) apoptotic DNA fragmentation and (B) Cell cycle analysis of BV 173 cells. The cells were kept as control cells (Ctl), treated with 1 μM or 2 μM MARB1 MARB2 and 0.2 or 0.5 μM imatinib for 48 h. The data was received by two independent experiments. The individual compounds show only slight effects in the used concentrations; whereas their combination can effectively kill leukemic cells. (C) Western blot analysis on data from the BCR-ABL, acetylated tubulin and α-sliced PARP1; the total amount of tubulin-α serves as a loading control. BV-173 cells were treated for 24 h with 1 μM, or 2 μM MARB1 or MARB2.
(§6) Human leukemia cell lines BV 173 and K562 with BCR-ABL mutation (Leibniz Institute DSMZ—German Collection of Microorganisms and Cell Cultures, DSMZ Accession Nos: ACC-20 and ACC-10).
The assay is carried out as described in Pietschmann et al., 2012 and Brandl et al. 2012. Briefly, 10^5 cells were fixed in 1 ml 70% EtOH with 0.05% Tween-20 overnight at 4° C. The following day, cells were washed with 3 ml 38 mM sodium citrate, pH 7.4, and incubated for 20 min at 37° C. in 0.5 ml 38 mM sodium citrate, pH 7.4, supplemented with 50 μg/ml propidium iodide and 10 μg/ml RNase-A. DNA contents of the cells were measured by fluorescence-activated cell sorter (FACS). […] Equally, the cell cycle profile can be assessed with this method.

The next test deals with UXF 1138. Kind of test: In vitro activity against solid tumor cell lines (FACS analysis method a). It is filed as cell-based. The following applies: Homo sapiens, Uterus. On the procedure:
Human uterus cancer cell line UXF 1138 (Oncotest GmbH, Freiburg, Germany)
as §3, §4

For a further test, the system named is RKO cells. As to the kind of experiment: Western blot analysis in RKO colorectal cancer cells. It counts as cell-based, human. The procedure: FIG. 5. Various cancer cells were treated for 24 h as shown and tested by Western blot analysis.
(D) Inhibition of HDAC6 protects it from degradation by the addition of a pro-apoptotic agent (staurosporine, ST).
The total amount of vinculin serves as a loading control; Proof of tubulin acetylation serves as proof of the treatment accuracy. The loss of the caspase-3 corresponds to the induction of apoptosis (programmed cell death).
Human colon cancer cell lines RKO (ATCC Accession No: CRL-2577) and HCT-116 (DSMZ Accession No: ACC-581).
as §1

In another test the test system is PRXF LNCaP. Kind of test: In vitro activity against solid tumor cell lines (FACS analysis method a). It is filed as cell-based. The following applies: Homo sapiens, Prostate. The procedure:
(§7) Human prostate cancer cell lines PRXF DU-145, PRXF LNCaP, PRXF PC-3M (Oncotest GmbH, Freiburg, Germany)
as §3, §4

Another test relates to PRXF PC-3M. The test is described as above. It is filed as cell-based. The following applies: Homo sapiens, Prostate. The procedure:
as §7, §3, §4

The next test relates to PRXF DU-145. The description is as above. It counts as cell-based. The following applies: Homo sapiens, Prostate. On the procedure:
as §7, §3, §4

The subject of test [2] is 42 solid tumor cell lines. As to the kind of experiment: In vitro activity against solid tumor cell lines, mean of all lines. It is filed as cell-based. The settings on record: average IC50 value from all 42 measurements.
Test [3] concerns BV-173 cells. As to the kind of experiment: Western blot analysis in BV-173 cells. It is filed as cell-based, human. The settings on record: for acetylation of histone H3: BV-173, 1 μM MARB1, 2 μM MARB2 or 2 mM VPA. On the procedure:
BV-173 cells (BCR-ABL positive leukemic cells) were used as control cells left (Ctl) or with 1 μM MARB1, 2 μM MARB2 or 2 mM VPA treated for 24 h. These concentrations were chosen to achieve equipotent effects on cells which was in preliminary tests (data not shown). Shown are acetylated tubulin-α, α-tubulin, acetylated histone H3, WT1, survivin and β-actin. The total amount of α-tubulin and β-actin were used as loading control. Mr, relative molecular weight in kilodaltons. The degradation of WT1 in patients treated with VPA cells bases on a loss of WT1 mRNA and the increased degradation of WT1 protein by induction of the E2 ubiquitin conjugase UbcH8.
as §5, §6, §1

The mark [4] stands for this setting: BV-173, 1 μM MARB1, 2 μM MARB2, 24 h.

pIC50: −log10 of the molar value.

`Cc1[nH]c2ccccc2c1CCNCc1ccc(/C=C/C(=O)NO)cc1` [LBH589, reference compound]: the “tubulin acetylation and degradation” value in the test with HCT-116 cells is reported as “degradation of tubulin”. For the same compound, in the test on HEL leukemic cells (compared to other inhibitors), the “acetylation of tubulin-α” value is “decreased acetylation of tubulin-α”.

With `CN1CC(=O)N2Cc3c(c4ccccc4n3Cc3ccc(C(=O)NO)cc3)C(C2)C1=O` (stereo not drawn) [MARB2, N-Hydroxy-4-((5-methyl-3,6-dioxo-4,5,6,7-tetrahydro-1H-2,7-methano[1,4]diazonino[6,7-b]indol-12(3H)-yl)methyl)benzamide], the pIC50 in the test on MAXF 401 was 4.86; in the test on MAXF MCF-7 it was 5.11; in the test with UXF 1138, 5.26; in the test on PRXF LNCaP it was 5.32; in the test on PRXF PC-3M, 4.68; in the test with PRXF DU-145, 4.99. The same compound had a pIC50 in [2] of 4.79. The “apoptotic and necrotic sub-G1 populations” value in the test with BV-173 cells [1] is listed as “significantly increases”. Also, the “tubulin acetylation and degradation” value with HCT-116 cells was “starts the hyperacetylation of tubulin in colon carcinoma cells (RKO and HCT-116 cells) without destroying it”. The hyperacetylation of tubulin result in the test on RKO cells (0.5 μM, 24 h) is reported as “sufficient to induce hyperacetylation of tubulin”. In the test on RKO cells (with staurosporine), the “HDAC6 loss in staurosporin (ST)-treated cells” value is given as “protects ST-treated RKO cells”. In addition, the “acetylation of tubulin-α” value in the test with BV-173 cells [3] (setting [4]) was “hyperacetylation of tubulin-α”. In the test on BV-173 cells [3] (setting [4]), the expression of survivin result is “reduction of the expression of survivin”. Besides, in the test on BV-173 cells [3] (24 h), the “acetylation of histone H3” value is “Neither MARB1, nor MARB2 cause these alterations”. For the same compound, the “BCR-ABL expression on the protein level” value with BV-173 cells [3] (BV-173, compound alone, 24 h) is “do not affect”. The “BCR-ABL stabilization/degradation in combination with imatinib” value with BV-173 cells [3] (BV-173, with imatinib, 24 h) is listed as “significantly inhibit the unwanted stabilization of BCR-ABL”. Also, the “concentration with about the same potency in hyperacetylation of tubulin-α” value with HEL leukemic cells was ~2 µM.

For the compound `CCCC(CCC)C(=O)O` [VPA, reference compound], the “acetylation of histone H3” value with BV-173 cells [3] (24 h) is reported as “induces hyperacetylation of histone H3”.

With `CN1CCc2c(c3ccccc3n2Cc2ccc(C(=O)NO)cc2)C1` [tubastatin A, reference compound], the “concentration with about the same potency in hyperacetylation of tubulin-α” value with HEL leukemic cells was ~5 µM.

For orientation: pIC50 means the IC50 on a negative log10 scale, so that one unit is a factor of ten. Low values mean a high IC50, high ones a low IC50.
